Experimental findings from patent US20120121540A1 (priority 2007, published 2012) are described below.

The nature of the experiment: HCV replicon assay (luciferase reporter, ET cell line). It is filed as cell-based. Conditions: Hepatitis C virus, HCV replicon luciferase activity in ET cells. The procedure, abridged:
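EC50 and, via WST-1 cytotoxicity, TC50 were fitted with a Hill-coefficient equation to % inhibition across 10 two-fold dilutions. Compounds at 0.1 nM-[…] with 0.5% DMSO were applied 24 h post-seeding to replicon-bearing ET cells (luc-ubi-neo/NS3-5B, adaptive mutations). Firefly luciferase signal was measured after 48-72 h.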
Background: A replicon is a self-replicating genome or part of one, used to study replication in cells.
For `O=C(NCc1cccs1)c1nc2c(C(F)(F)F)cc(C#Cc3ccccc3)cn2c1Cl` [Compound 294, 3-Chloro-6-phenylethynyl-8-trifluoromethyl-imidazo[1,2-a]pyridine-2-carboxylic Acid(thiophen-2-ylmethyl)-amide], the inhibition (commonly how much of the control response was suppressed) at 10 µM was found to be 41.5%.
With `C#Cc1cc(C(F)(F)F)c2nc(C(=O)NCc3cccs3)c(Cl)n2c1` [Compound 297, 3-Chloro-6-ethynyl-8-trifluoromethyl-imidazo[1,2-a]pyridine-2-carboxylic Acid (thiophen-2-ylmethyl)-amide] the figure was 29.3%; with `O=C(NCc1cccs1)c1nc2c(C(F)(F)F)cc(-c3cccc(F)c3)cn2c1I` [Compound 299, 6-(3-Fluoro-phenyl)-3-iodo-8-trifluoromethyl-imidazo[1,2-a]pyridine-2-carboxylic Acid(thiophen-2-ylmethyl)-amide], 97.6%.
With `C/C=C\c1c(C(=O)NCc2cccs2)nc2c(C(F)(F)F)cc(-c3cccc(F)c3)cn12` [Compound 300, 6-(3-Fluoro-phenyl)-3-propenyl-8-trifluoromethyl-imidazo[1,2-a]pyridine-2-carboxylic Acid(thiophen-2-ylmethyl)-amide] the figure was 76.9%; with `O=C(NCc1cccs1)c1nc2c(C(F)(F)F)cc(-c3cccc(F)c3)cn2c1-c1cn[nH]c1` [Compound 301, 6-(3-Fluoro-phenyl)-3-(1H-pyrazol-4-yl)-8-trifluoromethyl-imidazo[1,2-a]pyridine-2-carboxylic Acid (thiophen-2-ylmethyl)-amide], 79.9%; with `C=C(C)c1c(C(=O)NCc2cccs2)nc2c(C(F)(F)F)cc(-c3cccc(F)c3)cn12` [Compound 302, 6-(3-Fluoro-phenyl)-3-isopropenyl-8-trifluoromethyl-imidazo[1,2-a]pyridine-2-carboxylic Acid (thiophen-2-ylmethyl)-amide], 69.5%.
With `O=C(NCc1cccs1)c1nc2c(C(F)(F)F)cc(-c3cccc(F)c3)cn2c1C1=CCCCC1` [Compound 303, 3-Cyclohex-1-enyl-6-(3-fluoro-phenyl)-8-trifluoromethyl-imidazo[1,2-a]pyridine-2-carboxylic Acid (thiophen-2-ylmethyl)-amide] the figure was 39.7%; with `O=C(NCc1cccs1)c1nc2c(C(F)(F)F)cc(-c3cccc(F)c3)cn2c1C#Cc1cccnc1` [Compound 305, 6-(3-Fluoro-phenyl)-3-pyridin-3-ylethynyl-8-trifluoromethyl-imidazo[1,2-a]pyridine-2-carboxylic Acid (thiophen-2-ylmethyl)-amide], 59.5%.
For the compound `O=C(NCc1cccs1)c1nc2c(C(F)(F)F)cc(-c3cccc(F)c3)cn2c1C#CCCO` [Compound 306, 6-(3-Fluoro-phenyl)-3-(4-hydroxy-but-1-ynyl)-8-trifluoromethyl-imidazo[1,2-a]pyridine-2-carboxylic Acid (thiophen-2-ylmethyl)-amide], the inhibition at 10 µM came to 62.5%.
With `CC(C)(C)C#Cc1c(C(=O)NCc2cccs2)nc2c(C(F)(F)F)cc(-c3cccc(F)c3)cn12` [Compound 307, 3-(3,3-Dimethyl-but-1-ynyl)-6-(3-fluoro-phenyl)-8-trifluoromethyl-imidazo[1,2-a]pyridine-2-carboxylic Acid (thiophen-2-ylmethyl)-amide] the figure was 33.5%.
With `O=C(NCc1cccs1)c1nc2c(C(F)(F)F)cc(-c3cn[nH]n3)cn2c1Cl` [Compound 308, 3-Chloro-6-(2H-[1,2,3]triazol-4-yl)-8-trifluoromethyl-imidazo[1,2-a]pyridine-2-carboxylic Acid (thiophen-2-ylmethyl)-amide] the figure was 88.2%.
With `N#Cc1cc(C(F)(F)F)c2nc(C(=O)NCc3cccs3)c(Cl)n2c1` [Compound 309, 3-Chloro-6-cyano-8-trifluoromethyl-imidazo[1,2-a]pyridine-2-carboxylic Acid (thiophen-2-ylmethyl)-amide] the figure was 1.8%; with `O=C(NCc1cccs1)c1nc2c(C(F)(F)F)cc(-c3ncon3)cn2c1Cl` [Compound 311, 3-Chloro-6-[1,2,4]oxadiazol-3-yl-8-trifluoromethyl-imidazo[1,2-a]pyridine-2-carboxylic Acid (thiophen-2-ylmethyl)-amide], 83.2%.
In turn, `COC(=O)c1cc(C(F)(F)F)c2nc(C(=O)NCc3cccs3)c(Cl)n2c1` [Compound 312, 3-Chloro-2-[(thiophen-2-ylmethyl)-carbamoyl]-8-trifluoromethyl-imidazo[1,2-a]pyridine-6-carboxylic Acid Methyl Ester] registered an inhibition at 10 µM of 76.2%.
The figure for `O=C(NCc1cccs1)c1cn2cc(-c3cccc(F)c3)cc(C(F)(F)F)c2n1` [Compound 314, 6-(3-Fluoro-phenyl)-8-trifluoromethyl-imidazo[1,2-a]pyridine-2-carboxylic Acid (thiophen-2-ylmethyl)-amide] is 49.6%.
As to `O=C(c1nc2c(C(F)(F)F)cc(-c3ccco3)cn2c1Cl)N1CCC(c2ccc(F)cc2)C1` (stereo not shown) [Compound 316, (3-Chloro-6-furan-2-yl-8-trifluoromethyl-imidazo[1,2-a]pyridin-2-yl)-[3-(4-fluoro-phenyl)-pyrrolidin-1-yl]-methanone], the inhibition at 10 µM turned out to be 89.2%.
`O=C(c1nc2c(C(F)(F)F)cc(-c3ccco3)cn2c1Cl)N1CCC(O)(c2ccccc2)C1` (stereo not shown) [Compound 317, (3-Chloro-6-furan-2-yl-8-trifluoromethyl-imidazo[1,2-a]pyridin-2-yl)-(3-hydroxy-3-phenyl-pyrrolidin-1-yl)-methanone] showed an inhibition at 10 µM of 94.6%.
Take `CN1CCN(C(=O)c2nc3c(C(F)(F)F)cc(-c4ccco4)cn3c2Cl)CC1c1ccccc1` (stereo not shown) [Compound 318, (3-Chloro-6-furan-2-yl-8-trifluoromethyl-imidazo[1,2-a]pyridin-2-yl)-(4-methyl-3-phenyl-piperazin-1-yl)-methanone]: at 10 µM the inhibition was 62.4%.
With `CN(C)CCN(Cc1cccs1)C(=O)c1nc2c(C(F)(F)F)cc(-c3ccco3)cn2c1Cl` [Compound 319, 3-Chloro-6-furan-2-yl-8-trifluoromethyl-imidazo[1,2-a]pyridine-2-carboxylic Acid (2-dimethylamino-ethyl)-thiophen-2-ylmethyl-amide] the figure was 58.8%; with `CN1CCN(C(=O)c2nc3c(C(F)(F)F)cc(-c4ccco4)cn3c2Cl)C(c2ccccc2)C1` (stereo not shown) [Compound 320, (3-Chloro-6-furan-2-yl-8-trifluoromethyl-imidazo[1,2-a]pyridin-2-yl)-(4-methyl-2-phenyl-piperazin-1-yl)-methanone], 0.6%; with `O=C(NCCc1ccccc1)c1nc2c(C(F)(F)F)cc(-c3ccco3)cn2c1Cl` [Compound 321, 3-Chloro-6-furan-2-yl-8-trifluoromethyl-imidazo[1,2-a]pyridine-2-carboxylic Acid phenethyl-amide], 78.2%.
With `O=C(c1nc2c(C(F)(F)F)cc(-c3ccco3)cn2c1Cl)N1CCCC1c1ccccc1` (stereo not shown) [Compound 322, (3-Chloro-6-furan-2-yl-8-trifluoromethyl-imidazo[1,2-a]pyridin-2-yl)-(2-phenyl-pyrrolidin-1-yl)-methanone], the inhibition at 10 µM was determined as 78.7%.
`O=C(c1nc2c(C(F)(F)F)cc(-c3ccco3)cn2c1Cl)N1CCN(c2ccccc2)CC1` [Compound 323, (3-Chloro-6-furan-2-yl-8-trifluoromethyl-imidazo[1,2-a]pyridin-2-yl)-(4-phenyl-piperazin-1-yl)-methanone] had an inhibition at 10 µM of 54.6%.
The figure for `O=C(c1nc2c(C(F)(F)F)cc(-c3ccco3)cn2c1Cl)N1CCN(Cc2ccccc2)CC1` [Compound 324, (4-Benzyl-piperazin-1-yl)-(3-chloro-6-furan-2-yl-8-trifluoromethyl-imidazo[1,2-a]pyridin-2-yl)-methanone] is 34.6%; for `O=C(c1nc2c(C(F)(F)F)cc(-c3ccco3)cn2c1Cl)N1CCC(Cc2ccccc2)C1` (stereo not shown) [Compound 326, (3-Benzyl-pyrrolidin-1-yl)-(3-chloro-6-furan-2-yl-8-trifluoromethyl-imidazo[1,2-a]pyridin-2-yl)-methanone] it is 66.7%; for `Cn1cncc1CNC(=O)c1nc2c(C(F)(F)F)cc(-c3ccco3)cn2c1Cl` [Compound 327, 3-Chloro-6-furan-2-yl-8-trifluoromethyl-imidazo[1,2-a]pyridine-2-carboxylic Acid (3-methyl-3H-imidazol-4-ylmethyl)-amide] it is 95.4%.
For the compound `O=C(c1nc2c(C(F)(F)F)cc(-c3ccco3)cn2c1Cl)N1CC(Cc2ccccc2)C1` [Compound 328, (3-Benzyl-azetidin-1-yl)-(3-chloro-6-furan-2-yl-8-trifluoromethyl-imidazo[1,2-a]pyridin-2-yl)-methanone], the inhibition at 10 µM stood at 72.5%.
With `O=C(c1nc2c(C(F)(F)F)cc(-c3ccco3)cn2c1Cl)N1CCCC1c1ccc(F)cc1` (stereo not shown) [Compound 329, (3-Chloro-6-furan-2-yl-8-trifluoromethyl-imidazo[1,2-a]pyridin-2-yl)-[2-(4-fluoro-phenyl)-pyrrolidin-1-yl]-methanone] the figure was 97.6%.
With `CC1(C)CCCN1C(=O)c1nc2c(C(F)(F)F)cc(-c3ccoc3)cn2c1Cl` [Compound 330, (3-Chloro-6-furan-3-yl-8-trifluoromethyl-imidazo[1,2-a]pyridin-2-yl)-(2,2-dimethyl-pyrrolidin-1-yl)-methanone] the figure was 34.4%; with `O=C(c1nc2c(C(F)(F)F)cc(-c3ccoc3)cn2c1Cl)N1CCCC1c1ccccn1` (stereo not shown) [Compound 331, (3-Chloro-6-furan-3-yl-8-trifluoromethyl-imidazo[1,2-a]pyridin-2-yl)-(2-pyridin-2-yl-pyrrolidin-1-yl)-methanone], 53.3%.
With `CN(Cc1cccs1)C(=O)c1nc2c(C(F)(F)F)cc(-c3ccoc3)cn2c1Cl` [Compound 332, 3-Chloro-6-furan-3-yl-8-trifluoromethyl-imidazo[1,2-a]pyridine-2-carboxylic Acid Methyl-thiophen-2-ylmethyl-amide] the figure was 37.7%.
